Measured values: ChEMBL document CHEMBL3227979, “11-Oxo-11H-pyrido[2,1-b]quinazoline-8-carboxylic acid, an orally active antiallergy agent” (1979)
Calls of active or inactive are those of the source. No cut-off for these calls is given here.

Tests used:
[1] = test system: Rattus norvegicus; assay: Antiallergic activity in iv dosed rat assessed as inhibition of ovalbumin-induced passive cutaneous anaphylaxis dosed along with ovalbumin challenge; type: functional; conditions: read-out: ID50 (the source's name)
[2] = test system: Rattus norvegicus; assay: Antiallergic activity in po dosed rat assessed as inhibition of ovalbumin-induced passive cutaneous anaphylaxis pretreated for 10 to 15 mins followed by ovalbumin challenge; type: functional; conditions: for ED50: read-out: ID50 (the source's name)
[3] = test system: Rattus norvegicus; assay: Antiallergic activity in rat assessed as inhibition of ovalbumin-induced passive cutaneous anaphylaxis at 0.5 mg/kg, iv dosed along with ovalbumin challenge relative to control; type: functional
[4] = test system: Rattus norvegicus; assay: Antiallergic activity in iv dosed rat assessed as inhibition of antigen-induced passive cutaneous anaphylaxis; type: functional
[5] = test system: Rattus norvegicus; assay: Antiallergic activity in po dosed rat assessed as inhibition of antigen-induced passive cutaneous anaphylaxis; type: functional
[6] = organism: Cavia porcellus; assay: Antagonist activity at histamine receptor in guinea pig ileum assessed as reduction in histamine-induced contractions up to 0.1 mM; type: tissue-based
[7] = test system: Rattus norvegicus; assay: Antiallergic activity in rat assessed as inhibition of ovalbumin-induced passive cutaneous anaphylaxis at 5 mg/kg, iv dosed along with ovalbumin challenge relative to control; type: functional

SMILES | ED50 [1] [mg/kg] | inhibition [3] | inhibition in vivo at 0.5 mg/kg [3] [%] | other results
O=C([O-])c1cc(=O)c2c(OCC(O)COc3cccc4oc(C(=O)[O-])cc(=O)c34)cccc2o1.[Na+].[Na+] [CROMOLYN SODIUM] | 1 | – | – | ID50 [2]: inactive
O=C(O)c1ccc2nc3c(c(=O)n2c1)CCCC3 | – | inactive | – | –
O=C(O)c1cccn2c(=O)c3cc4ccccc4cc3nc12 | – | inactive | – | –
O=C(O)c1cccn2c(=O)c3ccccc3nc12 | – | inactive | – | –
O=C(O)c1ccc2nc3cc4ccccc4cc3c(=O)n2c1 | 0.1 | – | 100 | ED50 [4]: 0.015 mg/kg; ID50 [2]: inactive; ED50 [5]: < 0.1 mg/kg; inhibition [6]: inactive
O=C1c2ccccc2S(=O)(=O)c2cc(-c3nn[nH]n3)ccc21 [DOXANTRAZOLE] | 1.5 | – | – | ED50 [2]: 5 mg/kg
O=C(O)c1ccn2c(=O)c3ccccc3nc2c1 | – | – | 21 | –
Cl.O=C(O)c1ccc2nc3ccccc3c(=O)n2c1 | 0.5 | – | 45 | ED50 [2]: 2.5 mg/kg; inhibition [6]: inactive
O=C(O)c1ccc2nc(O)cc(=O)n2c1 | – | – | – | inhibition in vivo at 5 mg/kg [7]: 26%
Cc1cc(=O)n2cc(C(=O)O)ccc2n1 | – | inactive | – | –
